# Read-outs that look alike come from different tables or passages of the source.
# Columns and labels:
# Assay in all cases: 10-day Cell Titre Glo combination screen
# Format in all cases: cell-based
# [1] = test system: BT474C1; details: BT474C1 breast; monotherapy; read-out: mono AC50
# Text: (§1) The Highest Single Agent (HSA) model is used to determine a combination's synergy score (and is based simply on the intuition that if a combination's effect exceeds the effect level of each of its constituents, there must be some combination interaction). Mathematically, the HSA model describes simple superposition of the single agent curves:
# (§2) where CX,Y are the concentrations of the X and Y compound, and IX and IY are inhibitions of the single agents at CX,Y. It is also useful to calculate a volume score (HSA Volume) between the data and the HSA surface to characterise the overall strength of combination effects. Empirically derived combination matrices are compared to their respective HSA additivity models constructed from experimentally collected single agent dose response curves. Summation of this excess additivity across the dose response matrix is referred to HSA Volume.
# (§3) Potency shifting can also be scored using combination index (CI). For a chosen iso-effect level (ICut), CI is calculated as: […]
# (§4) where (CX/ECX) for a particular data point is the ratio of the X compound's measured concentration to its effective concentration at the chosen effect level. The CI is a rough estimate of how much drug was needed in combination relative to the single agent doses required to achieve the chosen effect level. CI values in the range of 0.5-0.7 are typical for in vitro measurements of current clinical combinations. The CI error (σCI) is calculated using standard error propagation through the CI calculation based on the isobologram errors.
# (§5) This combination screen was a 10-day assay using Cell Titre Glo as the readout for viability.
# (§6) The assay was performed in 384 well plates, with 1 cell line and 4 drug-drug combinations per plate dosed in a 6×6 matrix. A day zero reading was measured to determine growth inhibition. GenedataScreener was used to input the raw values for every well, and the software was programmed to normalise the values to the day zero and DMSO control values.
# (§7) The CellTiter-Glo® Luminescent Cell Viability Assay is a homogeneous method to determine the number of viable cells in culture based on quantitation of the ATP present, which signals the presence of metabolically active cells. It relies on the properties of a proprietary thermostable luciferase (Ultra-Glo™ Recombinant Luciferase), which generates a stable “glow-type” luminescent signal and improves performance across a wide range of assay conditions.
# (§8) The following information was reported: Synergy scores (HSA); combination index values; AC50 (half-maximal activity concentration) monotherapy values.
# [2] = test system: CAL-120; details: Homo sapiens; CAL-120 breast; monotherapy; read-out: mono AC50
# Text: as §1, §2, §3, §4, §5, §6, §7, §8
# [3] = test system: Calu-1; details: monotherapy, read-out: mono AC50
# Text: as §1, §2, §3, §4, §5, §6, §7, §8
# [4] = test system: EFM-19; details: Homo sapiens; EFM-19 breast; monotherapy; read-out: mono AC50
# Text: as §1, §2, §3, §4, §5, §6, §7, §8
# [5] = test system: HCC1187; details: Homo sapiens; HCC1187 breast; monotherapy; read-out: mono AC50
# Text: as §1, §2, §3, §4, §5, §6, §7, §8
# [6] = test system: HCC15; details: HCC15 lung; monotherapy; read-out: mono AC50
# Text: as §1, §2, §3, §4, §5, §6, §7, §8
# [7] = test system: LU99; details: Homo sapiens, Lu-99; LU99 lung; monotherapy; read-out: mono AC50
# Text: as §1, §2, §3, §4, §5, §6, §7, §8
# [8] = test system: MCF7 F100-16; details: Homo sapiens; MCF7 F100-16 breast; monotherapy; read-out: mono AC50
# Text: as §1, §2, §3, §4, §5, §6, §7, §8
# [9] = test system: MDA-MB-134IV; details: MDA-MB-134IV breast; monotherapy; read-out: mono AC50
# Text: as §1, §2, §3, §4, §5, §6, §7, §8
# [10] = test system: MDA-MB-231; details: Homo sapiens; MDA-MB-231 breast; monotherapy; read-out: mono AC50
# Text: as §1, §2, §3, §4, §5, §6, §7, §8
# [11] = test system: NCI-H1299; details: Homo sapiens; NCI-H1299 lung; monotherapy; read-out: mono AC50
# Text: as §1, §2, §3, §4, §5, §6, §7, §8
# [12] = test system: NCI-H1395; details: monotherapy, read-out: mono AC50
# Text: as §1, §2, §3, §4, §5, §6, §7, §8
# [13] = test system: NCI-H1792; details: Homo sapiens; NCI-H1792 lung; monotherapy; read-out: mono AC50
# Text: as §1, §2, §3, §4, §5, §6, §7, §8
# [14] = test system: NCI-H1993; details: Homo sapiens; NCI-H1993 lung; monotherapy; read-out: mono AC50
# Text: as §1, §2, §3, §4, §5, §6, §7, §8
# [15] = test system: NCI-H2291; details: Homo sapiens; NCI-H2291 lung; monotherapy; read-out: mono AC50
# Text: as §1, §2, §3, §4, §5, §6, §7, §8
# [16] = test system: NCI-H23; details: Homo sapiens; NCI-H23 lung; monotherapy; read-out: mono AC50
# Text: as §1, §2, §3, §4, §5, §6, §7, §8
# [17] = test system: NCI-H3122; details: monotherapy, read-out: mono AC50
# Text: as §1, §2, §3, §4, §5, §6, §7, §8
# [18] = test system: NCI-H358; details: Homo sapiens; NCI-H358 lung; monotherapy; read-out: mono AC50
# Text: as §1, §2, §3, §4, §5, §6, §7, §8
# [19] = test system: NCI-H441; details: Homo sapiens; NCI-H441 lung; monotherapy; read-out: mono AC50
# Text: as §1, §2, §3, §4, §5, §6, §7, §8
# [20] = test system: NCI-H522; details: Homo sapiens; NCI-H522 lung; monotherapy; read-out: mono AC50
# Text: as §1, §2, §3, §4, §5, §6, §7, §8
# [21] = test system: SK-BR-3; details: Homo sapiens; SK-BR-3 breast; monotherapy; read-out: mono AC50
# Text: as §1, §2, §3, §4, §5, §6, §7, §8
# [22] = test system: SUM52PE; details: SUM52PE breast; monotherapy; read-out: mono AC50
# Text: as §1, §2, §3, §4, §5, §6, §7, §8
# [23] = test system: T47D; details: Homo sapiens; T47D breast; monotherapy; read-out: mono AC50
# Text: as §1, §2, §3, §4, §5, §6, §7, §8
# [24] = test system: ZR-75-1; details: Homo sapiens; ZR-75-1 breast; monotherapy; read-out: mono AC50
# Text: as §1, §2, §3, §4, §5, §6, §7, §8
structure (smiles),measurement,setting,value
"C[C@@H]1COCCN1c1cc(C2([S@](C)(=N)=O)CC2)nc(-c2ccnc3[nH]ccc23)n1 [AZD6738, 4-{4-[(3R)-3-Methylmorpholin-4-yl]-6-[1-((R)—S-methylsulfonimidoyl)cyclopropyl]pyrimidin-2-yl}-1H-pyrrolo[2,3-b]-pyridine]",AC50,[1],3.83 µM
same,AC50,[2],1.18 µM
same,AC50,[3]; Calu-1 lung,5.6 µM
same,AC50,"[3]; Homo sapiens, Calu-1, Calu-1 lung",3.22 µM
same,AC50,[4],14.3 µM
same,AC50,[5],0.531 µM
same,AC50,[6],7.02 µM
same,AC50,[7],0.581 µM
same,AC50,[8],1.73 µM
same,AC50,[9],5.78 µM
same,AC50,[10],0.866 µM
same,AC50,[11],3.18 µM
same,AC50,"[12]; Homo sapiens, NCI-H1395, NCI-H1395 lung",3.31 µM
same,AC50,[12]; NCI-H1395 lung,2.9 µM
same,AC50,[13],0.677 µM
same,AC50,[14],2.97 µM
same,AC50,[15],1.12 µM
same,AC50,[16],0.221 µM
same,AC50,"[17]; Homo sapiens, NCI-H3122, NCI-H3122 lung",3.12 µM
same,AC50,[17]; NCI-H3122 lung,3.21 µM
same,AC50,[18],2.67 µM
same,AC50,[19],2.96 µM
same,AC50,[20],5.65 µM
same,AC50,[21],0.542 µM
same,AC50,[22],6.51 µM
same,AC50,[23],6.85 µM
same,AC50,[24],6.03 µM
